As a reminder, the inhibition is the drop in the measured response relative to a control, in per cent.

The source of these data is PubChem BioAssay AID588482 (NMMLSC, 2011).

This test concerns the target Beta-adrenergic receptor kinase 1 (Homo sapiens) (UniProt P25098). Kind of test: inhibition of GRK2-catalyzed rhodopsin phosphorylation – biochemical, set 2, orthogonal assay for GRK2 aptamer-displacement inhibitor project, late-stage follow-up (AID 588482). As to conditions: 32P incorporation, SDS-PAGE, at 200 µM, stronger effect = higher value.

Activity calls are given as the source filed them.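 How the source made its calls: active means a percent response above zero, which rounds up to a positive score; inactive means the rest.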

Chain of Beta-adrenergic receptor kinase 1 (Homo sapiens) (P25098 whole entry, looked up): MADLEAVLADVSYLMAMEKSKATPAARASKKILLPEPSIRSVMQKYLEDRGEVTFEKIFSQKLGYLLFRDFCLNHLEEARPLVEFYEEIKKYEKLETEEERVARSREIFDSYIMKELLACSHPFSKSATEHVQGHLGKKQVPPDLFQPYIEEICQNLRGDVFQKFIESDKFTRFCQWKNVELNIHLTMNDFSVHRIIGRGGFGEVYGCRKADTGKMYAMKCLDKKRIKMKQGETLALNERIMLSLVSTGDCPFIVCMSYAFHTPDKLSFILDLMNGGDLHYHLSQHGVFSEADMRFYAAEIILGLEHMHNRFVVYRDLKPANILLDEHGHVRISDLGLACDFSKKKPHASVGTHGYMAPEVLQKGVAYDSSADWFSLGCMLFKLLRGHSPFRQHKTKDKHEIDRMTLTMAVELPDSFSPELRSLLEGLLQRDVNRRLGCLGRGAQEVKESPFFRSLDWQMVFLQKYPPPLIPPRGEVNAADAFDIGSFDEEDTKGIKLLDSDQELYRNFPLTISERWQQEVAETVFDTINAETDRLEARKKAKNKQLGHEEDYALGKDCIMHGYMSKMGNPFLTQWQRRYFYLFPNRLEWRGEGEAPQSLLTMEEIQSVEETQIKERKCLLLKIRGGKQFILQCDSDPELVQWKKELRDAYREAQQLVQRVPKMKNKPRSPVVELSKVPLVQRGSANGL

Regarding `Cc1ccccc1NC(=O)CCS(=O)(=O)c1ccc(Br)s1`, the inhibition is -7.11% (inactive).

For `Cc1ccc(CCNC(=O)CCS(=O)(=O)c2ccc(Br)cc2)cc1`, the inhibition is -30.2% (inactive).

Consider `O=C(CN1CCc2ccccc21)NC(=O)NCc1ccccc1`, for which the inhibition was -42.4% (inactive).

Consider `O=C(CCS(=O)(=O)c1ccc(Br)cc1)Nc1ccc(Br)cc1F`, for which the inhibition was 11.4%.

As to `NS(=O)(=O)c1ccc(CCNC(=O)CCS(=O)(=O)c2ccc(Br)cc2)cc1`, the inhibition is -15.8% (inactive).

For `O=C(CCS(=O)(=O)c1ccc(Br)cc1)NCc1cccs1`, the inhibition was 8.45%.

Turning to `CCOc1ccccc1NC(=O)CCS(=O)(=O)c1ccc(Br)cc1`, the inhibition is 0.79%.

Consider `COc1ccc(CCNC(=O)CCS(=O)(=O)c2ccc(Br)cc2)cc1OC`, for which the inhibition was -29.5% (inactive).

For the molecule `CC(CS(=O)(=O)c1ccc2c(c1)NC(=O)CS2)C(=O)NCc1ccccc1Cl` (stereo not drawn), the inhibition was 46.8%.

On to `COc1ccc([N+](=O)[O-])cc1NC(=O)CCS(=O)(=O)c1ccc(Br)cc1`, for which the inhibition was 30.9%.

As for `Cc1cccc(CCNC(=O)CCS(=O)(=O)c2ccc(Br)cc2)c1`, the inhibition is -50.6% (inactive).

As for `CC(=O)N1CCN(Cc2nc3cc(Cl)ccc3c(=O)[nH]2)CC1`, the inhibition was -20% (inactive).

On to `COC(=O)c1ccc(NC(=O)CCS(=O)(=O)c2ccc(Br)cc2)cc1`, for which the inhibition was -71.8% (inactive).

For `O=C(CCS(=O)(=O)c1ccc(Br)s1)Nc1ccccc1Br`, the inhibition was -32.3% (inactive).

`Cc1cc2ccccc2n1CCNC(=O)C(C)Oc1ccccc1` (stereo not drawn): the inhibition was -3.83% (inactive).

Take `C#CCSc1nc2sc3c(c2c(=O)n1C)CCC3`: the inhibition was 36.7%.

`COC(=O)c1ccccc1NC(=O)CCS(=O)(=O)c1ccc(Br)s1`: the inhibition was -18.3% (inactive).

As to `CCN(CC)c1ccc(NC(=O)CCS(=O)(=O)c2ccc(Br)cc2)c(C)c1`, the inhibition was 59.3%.

In the case of `O=C(CSc1nc2ccccc2c(=O)n1-c1ccccc1)NC(=O)CN1CCCC1=O`, the inhibition is -54% (inactive).

Consider `O=C(O)Cc1ccc(-n2cccc2)cc1`, for which the inhibition is 46.5%.

Consider `COc1ccc(NC(=O)CCS(=O)(=O)c2ccc(Br)s2)cc1`, for which the inhibition was -90.5% (inactive).

As for `CCOc1ccc(NC(=O)CCS(=O)(=O)c2ccc(Br)cc2)cc1`, the inhibition was -28.6% (inactive).

On to `COc1ccc(Cl)cc1NC(=O)CCS(=O)(=O)c1ccc(Br)cc1`, for which the inhibition was 11%.
